The target of one assay is ALK (Homo sapiens, UniProt Q9UM73). As to the kind of experiment: ALK enzyme assay (HTRF). Type of assay: biochemical. The following applies: 0.25 nM ALK, 15.0 μM ATP, values given as pIC50 category. In outline:
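Isolated ALK phosphorylates a biotinylated tyrosine peptide, 120 min at 20° C; anti-phosphotyrosine Eu-cryptate/streptavidin-XL665 HTRF read after 60 min with EDTA-containing detection mix.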

The subject of the next assay is Colo205. Kind of assay: Inhibition of cell proliferation (CellTiter-Glo or InCell analyzer), Colo205. Type of assay: cell-based. The following applies: Homo sapiens, COLO 205, 72 h / 3 days, values given as IC50 category. In outline:
In one
In general terms: ATP-based viability assays read luminescence as a measure of living cells.

The subject of a further assay is NCI-H929. As to the kind of experiment: Inhibition of cell proliferation (CellTiter-Glo or InCell analyzer), NCI-H929. It is filed as cell-based. The following applies: Homo sapiens, 72 h / 3 days, values given as IC50 category. In outline: In one

The record followed here is patent publication US7981903B2, “2-[2-{phenylamino}-1H-pyrrolo[2,3-D]pyrimidin-4-yl)amino] benzamide derivatives as IGF-1R inhibitors for the treatment of cancer” (GlaxoSmithKline LLC, priority 2007, dated 2011).

Sequence of ALK (Q9UM73 19-1620): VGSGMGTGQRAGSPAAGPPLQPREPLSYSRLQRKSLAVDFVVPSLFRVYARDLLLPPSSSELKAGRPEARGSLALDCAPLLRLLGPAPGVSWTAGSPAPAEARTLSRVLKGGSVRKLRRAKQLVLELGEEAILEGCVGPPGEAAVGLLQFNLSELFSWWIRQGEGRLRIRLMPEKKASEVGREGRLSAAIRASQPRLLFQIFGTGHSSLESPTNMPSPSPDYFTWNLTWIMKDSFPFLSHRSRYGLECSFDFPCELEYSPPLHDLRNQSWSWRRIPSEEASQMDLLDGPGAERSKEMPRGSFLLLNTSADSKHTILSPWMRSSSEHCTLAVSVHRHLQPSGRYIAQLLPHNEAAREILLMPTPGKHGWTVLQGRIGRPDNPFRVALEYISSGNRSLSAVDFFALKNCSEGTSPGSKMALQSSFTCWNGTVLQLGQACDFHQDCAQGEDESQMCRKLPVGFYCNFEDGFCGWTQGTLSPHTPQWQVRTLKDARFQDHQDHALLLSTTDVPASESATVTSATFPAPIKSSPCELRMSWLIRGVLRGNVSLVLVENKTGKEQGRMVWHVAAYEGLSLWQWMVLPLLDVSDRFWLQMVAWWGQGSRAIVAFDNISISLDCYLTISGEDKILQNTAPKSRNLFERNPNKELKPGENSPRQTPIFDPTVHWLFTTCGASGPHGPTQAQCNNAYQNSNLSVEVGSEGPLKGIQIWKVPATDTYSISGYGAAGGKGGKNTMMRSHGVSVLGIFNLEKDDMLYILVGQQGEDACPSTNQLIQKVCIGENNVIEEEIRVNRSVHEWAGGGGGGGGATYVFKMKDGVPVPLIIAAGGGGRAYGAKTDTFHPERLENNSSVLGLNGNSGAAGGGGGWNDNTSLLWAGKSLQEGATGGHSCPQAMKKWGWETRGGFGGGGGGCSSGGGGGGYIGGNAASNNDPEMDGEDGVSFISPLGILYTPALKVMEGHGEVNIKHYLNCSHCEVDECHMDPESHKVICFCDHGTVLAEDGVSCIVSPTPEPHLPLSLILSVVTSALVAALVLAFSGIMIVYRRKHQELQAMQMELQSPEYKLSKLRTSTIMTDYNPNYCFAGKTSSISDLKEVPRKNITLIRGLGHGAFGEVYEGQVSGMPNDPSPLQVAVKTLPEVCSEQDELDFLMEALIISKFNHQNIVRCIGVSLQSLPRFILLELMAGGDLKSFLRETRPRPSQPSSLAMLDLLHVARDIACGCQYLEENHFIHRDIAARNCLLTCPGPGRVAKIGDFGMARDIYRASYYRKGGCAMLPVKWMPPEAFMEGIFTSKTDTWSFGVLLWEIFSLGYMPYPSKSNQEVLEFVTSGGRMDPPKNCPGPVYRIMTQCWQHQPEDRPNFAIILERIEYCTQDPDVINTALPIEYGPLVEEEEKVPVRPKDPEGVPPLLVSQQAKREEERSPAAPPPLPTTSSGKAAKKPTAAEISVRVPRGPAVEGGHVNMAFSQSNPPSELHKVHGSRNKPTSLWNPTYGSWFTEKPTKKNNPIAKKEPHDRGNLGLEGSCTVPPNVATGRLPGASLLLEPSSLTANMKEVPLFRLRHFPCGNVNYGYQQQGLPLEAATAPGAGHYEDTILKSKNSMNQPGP

In general, IC50 refers to the concentration at which inhibition is half-maximal. High values mean a need for much substance, low ones inhibition by little substance. For the compound `CCNC(=O)c1c(F)cc(F)cc1Nc1nc(Nc2cc3c(cc2OC)CCCN3C(=O)CN(C)C)nc2[nH]ccc12` [Example 180, 2-[(2-{[1-(N,N-dimethylglycyl)-6-(methyloxy)-1,2,3,4-tetrahydro-7-quinolinyl]amino}-1H-pyrrolo[2,3-d]pyrimidin-4-yl)amino]-N-ethyl-4,6-difluorobenzamide], the figures for the IC50 against ALK, in the assay with Colo205 and with NCI-H929 were 0.251 to 1 nM, 250 to 1000 nM and 250 to 1000 nM, respectively.
Take `COc1cc2c(cc1Nc1nc(Nc3cccc(F)c3C(N)=O)c3cc[nH]c3n1)N(C(=O)CN1CCCCC1)CCC2` [Example 218, 2-fluoro-6-[(2-{[6-(methyloxy)-1-(1-piperidinylacetyl)-1,2,3,4-tetrahydro-7-quinolinyl]amino}-1H-pyrrolo[2,3-d]pyrimidin-4-yl)amino]benzamide]: the values for the IC50 at ALK, in the assay with Colo205 and in the assay with NCI-H929 were 0.251 to 1 nM, < 250 nM and < 250 nM, respectively.
For `COc1cc(N2CCN(C(C)C)CC2)ccc1Nc1nc(Nc2ccccc2C(N)=O)c2cc[nH]c2n1` [Example 7, 2-[(2-{[4-[4-(1-methylethyl)-1-piperazinyl]-2-(methyloxy)phenyl]amino}-1H-pyrrolo[2,3-d]pyrimidin-4-yl)amino]benzamide], the IC50 was 0.251 to 1 nM at ALK, < 250 nM in the assay on Colo205 and < 250 nM with NCI-H929.
With `COc1cc2c(cc1Nc1nc(Nc3cc4ccccc4cc3C(N)=O)c3cc[nH]c3n1)N(C(=O)CN(C)C)CC2` [Example 124, 3-[(2-{[1-(N,N-dimethylglycyl)-5-(methyloxy)-2,3-dihydro-1H-indol-6-yl]amino}-1H-pyrrolo[2,3-d]pyrimidin-4-yl)amino]-2-naphthalenecarboxamide], the IC50 against ALK was 1.26 to 3.98 nM; with Colo205, < 250 nM; with NCI-H929 it was < 250 nM.
As to `CNC(=O)c1c(F)cccc1Nc1nc(Nc2cc3c(cc2OC)CCN3C(=O)COC)nc2[nH]ccc12` [Example 150, 2-fluoro-N-methyl-6-{[2-({5-(methyloxy)-1-[(methyloxy)acetyl]-2,3-dihydro-1H-indol-6-yl}amino)-1H-pyrrolo[2,3-d]pyrimidin-4-yl]amino}benzamide], the IC50 is 5.01 to 200 nM on ALK, > 1000 nM in the assay on Colo205 and 250 to 1000 nM in the assay with NCI-H929.
The like results for `COc1cc2c(cc1Nc1nc(Nc3cc(Cl)cc(F)c3C(N)=O)c3cc[nH]c3n1)N(C(=O)CN(C)C)CC2` [Example 119, 4-chloro-2-[(2-{[1-(N,N-dimethylglycyl)-5-(methyloxy)-2,3-dihydro-1H-indol-6-yl]amino}-1H-pyrrolo[2,3-d]pyrimidin-4-yl)amino]-6-fluorobenzamide] were, in that order, 1.26 to 3.98 nM, 250 to 1000 nM and < 250 nM.
As for `CCN(C)CC(=O)N1CCCc2cc(OC)c(Nc3nc(Nc4cccc(F)c4C(=O)NC)c4cc[nH]c4n3)cc21` [Example 132, 2-[(2{-[1-(N-ethyl-N-methylglycyl)-6-(methyloxy)-1,2,3,4-tetrahydro-7-quinolinyl]amino}-1H-pyrrolo[2,3-d]pyrimidin-4-yl)amino]-6-fluoro-N-methylbenzamide], the IC50 is 5.01 to 200 nM on ALK, < 250 nM in the assay on Colo205 and < 250 nM in the assay on NCI-H929.
In the case of `COCC(=O)N1CCc2cc(OC)c(Nc3nc(Nc4cccc(F)c4C(N)=O)c4cc[nH]c4n3)cc21` [Example 149, 2-fluoro-6-{[2-({5-(methyloxy)-1-[(methyloxy)acetyl]-2,3-dihydro-1H-indol-6-yl}amino)-1H-pyrrolo[2,3-d]pyrimidin-4-yl]amino}benzamide], the IC50 at ALK was 5.01 to 200 nM; with Colo205 it was > 1000 nM; in the assay with NCI-H929, 250 to 1000 nM.
Take `CNC(=O)c1c(F)cccc1Nc1nc(Nc2cc3c(cc2OC)CCCN3C(=O)CCN(C)C)nc2[nH]ccc12` [Example 213, 2-[(2-{[1-(N,N-dimethyl-β-alanyl)-6-(methyloxy)-1,2,3,4-tetrahydro-7-quinolinyl]amino}-1H-pyrrolo[2,3-d]pyrimidin-4-yl)amino]-6-fluoro-N-methylbenzamide]: the IC50 was 5.01 to 200 nM at ALK, > 1000 nM with Colo205 and 250 to 1000 nM in the assay with NCI-H929.
With `COc1ccc(NC(=O)CN(C)C)cc1Nc1nc(Nc2cccc(F)c2C(N)=O)c2cc[nH]c2n1` [Example 244, 2-[(2-{[5-[(N,N-dimethylglycyl)amino]-2-(methyloxy)phenyl]amino}-1H-pyrrolo[2,3-d]pyrimidin-4-yl)amino]-6-fluorobenzamide], the values for the IC50 at ALK, in the assay on Colo205 and in the assay on NCI-H929 were 0.251 to 1 nM, < 250 nM and < 250 nM, respectively.
For the compound `CCCNC(=O)c1c(F)cc(F)cc1Nc1nc(Nc2cc3c(cc2OC)CCN3C(=O)CN(C)C)nc2[nH]ccc12` [Example 152, 2-[(2-{[1-(N,N-dimethylglycyl)-5-(methyloxy)-2,3-dihydro-1H-indol-6-yl]amino}-1H-pyrrolo[2,3-d]pyrimidin-4-yl)amino]-4,6-difluoro-N-propylbenzamide], the IC50 on ALK is 0.251 to 1 nM; with Colo205, 250 to 1000 nM; in the assay with NCI-H929, 250 to 1000 nM.
Turning to `COc1cc2c(cc1Nc1nc(Nc3cc(F)cc(F)c3C(N)=O)c3cc[nH]c3n1)N(C(=O)CN(C)C)CC2` [Example 189, 2-[(2-{[1-(N,N-dimethylglycyl)-5-(methyloxy)-2,3-dihydro-1H-indol-6-yl]amino}-1H-pyrrolo[2,3-d]pyrimidin-4-yl)amino]-4,6-difluorobenzamide], the IC50 against ALK is 1.26 to 3.98 nM; with Colo205 it was < 250 nM; with NCI-H929, < 250 nM.
As for `COc1cc2c(cc1Nc1nc(Nc3cccc(F)c3C(N)=O)c3cc[nH]c3n1)N(C(=O)CCN1CCOCC1)CC2` [Example 187, 2-fluoro-6-{[2-({5-(methyloxy)-1-[3-(4-morpholinyl)propanoyl]-2,3-dihydro-1H-indol-6-yl}amino)-1H-pyrrolo[2,3-d]pyrimidin-4-yl]amino}benzamide], the IC50 against ALK was 1.26 to 3.98 nM; in the assay with Colo205, > 1000 nM; in the assay on NCI-H929, < 250 nM.
The like results for `CNC(=O)c1c(F)cccc1Nc1nc(Nc2cc3c(cc2OC)CCN3C(=O)C(C)(C)O)nc2[nH]ccc12` [Example 193, 2-fluoro-6-[(2-{[1-(2-hydroxy-2-methylpropanoyl)-5-(methyloxy)-2,3-dihydro-1H-indol-6-yl]amino}-1H-pyrrolo[2,3-d]pyrimidin-4-yl)amino]-N-methylbenzamide] were, in that order, 5.01 to 200 nM, > 1000 nM and > 1000 nM.
Regarding `COc1cc2c(cc1Nc1nc(Nc3cccc(F)c3C(N)=O)c3cc[nH]c3n1)N(C(=O)CN(C)C)CC2` [Example 53, 2-[(2-{[1-(N,N-dimethylglycyl)-5-(methyloxy)-2,3-dihydro-1H-indol-6-yl]amino}-1H-pyrrolo[2,3-d]pyrimidin-4-yl)amino]-6-fluorobenzamide], the IC50 against ALK was 0.251 to 1 nM; in the assay with Colo205, < 250 nM; with NCI-H929 it was < 250 nM.
For the compound `CCCN(C)CC(=O)N1CCc2cc(OC)c(Nc3nc(Nc4cccc(F)c4C(N)=O)c4cc[nH]c4n3)cc21` [Example 168, 2-fluoro-6-[(2-{[5-(methyloxy)-1-(N-methyl-N-propylglycyl)-2,3-dihydro-1H-indol-6-yl]amino}-1H-pyrrolo[2,3-d]pyrimidin-4-yl)amino]benzamide], the results for the IC50 on ALK, in the assay with Colo205 and in the assay on NCI-H929 were 1.26 to 3.98 nM, < 250 nM and < 250 nM, respectively.
